In the supplement of paper PMC10307832:

Legend:
Assay in all cases: relative viability (nuclei count vs DMSO), 5 days (fraction); higher = more cells survive
NCI-H1666 = test system: NCI-H1666
Method in brief: (§1)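 Relative viability equals treated-well nuclei counts divided by vehicle-well nuclei counts. Counts came from 4× images of lung cancer cell lines grown in 1536-well plates for 5 days after pin-tool dosing on the day after seeding. Dosing used one drug alone or a fixed anchor-drug dose plus five library-drug doses (not always all listed) in √10 steps, and values are medians of duplicate plates.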

PC-14 = test system: PC-14
Method in brief: as §1

BEN = test system: BEN
Method in brief: as §1

NCI-H520 = test system: NCI-H520
Method in brief: as §1

ABC-1 = test system: ABC-1
Method in brief: as §1

NCI-H358 = test system: NCI-H358
Method in brief: as §1

NCI-H23 = test system: NCI-H23
Method in brief: as §1

NCI-H596 = test system: NCI-H596
Method in brief: as §1

NCI-H2405 = test system: NCI-H2405
Method in brief: as §1

NCI-H1975 = test system: NCI-H1975
Method in brief: as §1

HOP-62 = test system: HOP-62
Method in brief: as §1

HCC-827 = test system: HCC-827
Method in brief: as §1

NCI-H3122 = test system: NCI-H3122
Method in brief: as §1

NCI-H2170 = test system: NCI-H2170
Method in brief: as §1

NCI-H1792 = test system: NCI-H1792
Method in brief: as §1

EPLC-272H = test system: EPLC-272H
Method in brief: as §1

UMC-11 = test system: UMC-11
Method in brief: as §1

NCI-H727 = test system: NCI-H727
Method in brief: as §1

NCI-H322M = test system: NCI-H322M
Method in brief: as §1

LU99A = test system: LU99A
Method in brief: as §1

NCI-H647 = test system: NCI-H647
Method in brief: as §1

NCI-H838 = test system: NCI-H838
Method in brief: as §1

NCI-H1355 = test system: NCI-H1355
Method in brief: as §1

## O=C(O)CCCCC(CCSCc1ccccc1)SCc1ccccc1 (stereo not drawn) [CPI-613] + N=C(N)NC(=N)NCCc1ccccc1 [Phenformin] (partner 250 µM)
NCI-H1666; first compound 5 µM
  relative viability: 0.56
NCI-H1666; first compound 15.81 µM
  relative viability: 0.539
NCI-H1666; first compound 50 µM
  relative viability: 0.534
NCI-H1666; first compound 158.11 µM
  relative viability: 0.26
NCI-H1666; first compound 500 µM
  relative viability: 0.251
PC-14; first compound 5 µM
  relative viability: 0.463
PC-14; first compound 15.81 µM
  relative viability: 0.458
PC-14; first compound 50 µM
  relative viability: 0.567
PC-14; first compound 158.11 µM
  relative viability: 0.386
PC-14; first compound 500 µM
  relative viability: 0.207
BEN; first compound 5 µM
  relative viability: 0.242
BEN; first compound 15.81 µM
  relative viability: 0.251
BEN; first compound 50 µM
  relative viability: 0.255
BEN; first compound 158.11 µM
  relative viability: 0.25
BEN; first compound 500 µM
  relative viability: 0.215
NCI-H520; first compound 5 µM
  relative viability: 0.667
NCI-H520; first compound 15.81 µM
  relative viability: 0.433
NCI-H520; first compound 50 µM
  relative viability: 0.634
NCI-H520; first compound 158.11 µM
  relative viability: 0.446
NCI-H520; first compound 500 µM
  relative viability: 0.35
ABC-1; first compound 5 µM
  relative viability: 0.22
ABC-1; first compound 15.81 µM
  relative viability: 0.211
ABC-1; first compound 50 µM
  relative viability: 0.247
ABC-1; first compound 158.11 µM
  relative viability: 0.146
ABC-1; first compound 500 µM
  relative viability: 0.192
NCI-H358; first compound 15.81 µM
  relative viability: 0.297
NCI-H358; first compound 50 µM
  relative viability: 0.31
NCI-H358; first compound 158.11 µM
  relative viability: 0.172
NCI-H358; first compound 500 µM
  relative viability: 0.017
NCI-H23; first compound 5 µM
  relative viability: 0.819
NCI-H23; first compound 15.81 µM
  relative viability: 0.746
NCI-H23; first compound 50 µM
  relative viability: 0.803
NCI-H23; first compound 158.11 µM
  relative viability: 0.358
NCI-H23; first compound 500 µM
  relative viability: 0.0072
NCI-H596; first compound 5 µM
  relative viability: 0.64
NCI-H596; first compound 15.81 µM
  relative viability: 0.672
NCI-H596; first compound 50 µM
  relative viability: 0.812
NCI-H596; first compound 158.11 µM
  relative viability: 0.668
NCI-H596; first compound 500 µM
  relative viability: 0.0197
NCI-H2405; first compound 5 µM
  relative viability: 0.394
NCI-H2405; first compound 15.81 µM
  relative viability: 0.367
NCI-H2405; first compound 50 µM
  relative viability: 0.392
NCI-H2405; first compound 158.11 µM
  relative viability: 0.396
NCI-H2405; first compound 500 µM
  relative viability: 0.371
NCI-H1975; first compound 5 µM
  relative viability: 0.397
NCI-H1975; first compound 15.81 µM
  relative viability: 0.404
NCI-H1975; first compound 50 µM
  relative viability: 0.388
NCI-H1975; first compound 158.11 µM
  relative viability: 0.291
NCI-H1975; first compound 500 µM
  relative viability: 0.0692
HOP-62; first compound 5 µM
  relative viability: 0.67
HOP-62; first compound 15.81 µM
  relative viability: 0.632
HOP-62; first compound 50 µM
  relative viability: 0.62
HOP-62; first compound 158.11 µM
  relative viability: 0.437
HOP-62; first compound 500 µM
  relative viability: 0.204
HCC-827; first compound 5 µM
  relative viability: 0.361
HCC-827; first compound 15.81 µM
  relative viability: 0.374
HCC-827; first compound 50 µM
  relative viability: 0.41
HCC-827; first compound 158.11 µM
  relative viability: 0.318
HCC-827; first compound 500 µM
  relative viability: 0.185
NCI-H3122; first compound 5 µM
  relative viability: 0.387
NCI-H3122; first compound 15.81 µM
  relative viability: 0.364
NCI-H3122; first compound 50 µM
  relative viability: 0.339
NCI-H3122; first compound 158.11 µM
  relative viability: 0.17
NCI-H3122; first compound 500 µM
  relative viability: 0.0221
NCI-H2170; first compound 5 µM
  relative viability: 0.435
NCI-H2170; first compound 15.81 µM
  relative viability: 0.404
NCI-H2170; first compound 50 µM
  relative viability: 0.38
NCI-H2170; first compound 158.11 µM
  relative viability: 0.352
NCI-H2170; first compound 500 µM
  relative viability: 0.11
NCI-H1792; first compound 5 µM
  relative viability: 0.332
NCI-H1792; first compound 50 µM
  relative viability: 0.236
NCI-H1792; first compound 158.11 µM
  relative viability: 0.205
NCI-H1792; first compound 500 µM
  relative viability: 0.0809
EPLC-272H; first compound 5 µM
  relative viability: 0.286
EPLC-272H; first compound 15.81 µM
  relative viability: 0.26
EPLC-272H; first compound 50 µM
  relative viability: 0.309
EPLC-272H; first compound 158.11 µM
  relative viability: 0.279
EPLC-272H; first compound 500 µM
  relative viability: 0.0144
UMC-11; first compound 5 µM
  relative viability: 0.274
UMC-11; first compound 15.81 µM
  relative viability: 0.297
UMC-11; first compound 50 µM
  relative viability: 0.289
UMC-11; first compound 158.11 µM
  relative viability: 0.124
UMC-11; first compound 500 µM
  relative viability: 0.117
NCI-H727; first compound 5 µM
  relative viability: 0.548
NCI-H727; first compound 15.81 µM
  relative viability: 0.693
NCI-H727; first compound 50 µM
  relative viability: 0.62
NCI-H727; first compound 158.11 µM
  relative viability: 0.353
NCI-H727; first compound 500 µM
  relative viability: 0.0983
NCI-H322M; first compound 5 µM
  relative viability: 0.76
NCI-H322M; first compound 15.81 µM
  relative viability: 0.718
NCI-H322M; first compound 50 µM
  relative viability: 0.728
NCI-H322M; first compound 158.11 µM
  relative viability: 0.693
NCI-H322M; first compound 500 µM
  relative viability: 0.0264
LU99A; first compound 5 µM
  relative viability: 0.801
LU99A; first compound 15.81 µM
  relative viability: 0.793
LU99A; first compound 50 µM
  relative viability: 0.823
LU99A; first compound 158.11 µM
  relative viability: 0.733
LU99A; first compound 500 µM
  relative viability: 0.0986
NCI-H647; first compound 5 µM
  relative viability: 0.575
NCI-H647; first compound 15.81 µM
  relative viability: 0.408
NCI-H647; first compound 50 µM
  relative viability: 0.501
NCI-H647; first compound 158.11 µM
  relative viability: 0.108
NCI-H647; first compound 500 µM
  relative viability: 0.0098
NCI-H838; first compound 5 µM
  relative viability: 0.586
NCI-H838; first compound 15.81 µM
  relative viability: 0.481
NCI-H838; first compound 50 µM
  relative viability: 0.558
NCI-H838; first compound 158.11 µM
  relative viability: 0.261
NCI-H838; first compound 500 µM
  relative viability: 0.0688
NCI-H1355; first compound 5 µM
  relative viability: 0.423
NCI-H1355; first compound 15.81 µM
  relative viability: 0.412
NCI-H1355; first compound 50 µM
  relative viability: 0.411
NCI-H1355; first compound 158.11 µM
  relative viability: 0.347
NCI-H1355; first compound 500 µM
  relative viability: 0.105
